Earlier results on 2 molecules are cited in PubChem BioAssay AID1259409 (Chemical Carcinogenesis Research Information System (CCRIS), 2018).

Molecules are shown by their SMILES. Where “and” joins values, the source holds several entries; their conditions need not be identical. Equal entries are not always repeated.

The test system of the data set is rodent chemically induced tumor inhibition, incidence and multiplicity. In words: CCRIS tumor inhibitor studies.

Consider `CC1=C(/C=C/C(C)=C\C=C\C(C)=C\C(=O)O)C(C)(C)CCC1`, for which the outcome (Carcinogen: 4-(Methylnitrosamino)-1-(3-pyridyl)-1-butanone [64091-91-4] (NNK), Dose [Inhibitor]: 0, 7.5, 15, 30 mg/kg in diet for 17 wks, study duration 17 wks, Dose [Inhibitor]: 0, 7.5, 15, 30 mg/kg in diet for 17 wks, study duration 17 wks, Route [Inhibitor]: Oral, Species: Mouse, Strain/Sex: A/J/Male, Target Tissue: Type of Lesion: Lung, Dose [Carcinogen]: 100 mg NNK/kg bw once at 8 wks of age, study duration 17 wks) is on record as 14/14 (100%); 13/14 (93%); 14/14 (100%); 11/13 (85%). Also, the “tumour outcome (control, treated, inhibition, significance)” value (Carcinogen: N-METHYL-N-NITROSOUREA, 684-93-5, Dose [Inhibitor]: 0, 3.3 UG/KG OF DIET FOR 147 D (STUDY DURATION: 150 D), Route [Inhibitor]: ORAL, Species: RAT, Strain/Sex: SPRAGUE-DAWLEY/FEMALE, Target Tissue: Type of Lesion: MAMMARY GLAND: ADENOCARCINOMA, Dose [Carcinogen]: 50 MG/KG BW ONCE 3 D BEFORE INITIAL INHIBITOR DOSE, Promoter: NONE USED) is 25/25 (100%), 25/25 (100%), 0%, not significant; the “tumour outcome (control, treated, inhibition, significance)” value (Carcinogen: N-METHYL-N-NITROSOUREA, 684-93-5, Dose [Inhibitor]: 0, 10 UG/KG OF DIET FOR 147 D (STUDY DURATION: 150 D), Route [Inhibitor]: ORAL, Species: RAT, Strain/Sex: SPRAGUE-DAWLEY/FEMALE, Target Tissue: Type of Lesion: MAMMARY GLAND: ADENOCARCINOMA, Dose [Carcinogen]: 50 MG/KG BW ONCE 3 D BEFORE INITIAL INHIBITOR DOSE, Promoter: NONE USED) is on record as 25/25 (100%), 25/25 (100%), 0%, not significant; the “tumour outcome (control, treated, inhibition, significance)” value (Carcinogen: N-METHYL-N-NITROSOUREA, 684-93-5, Dose [Inhibitor]: 0, 50 MG/KG OF DIET BEGINNING 1 WK PRIOR TO CARCINOGEN DOSE (STUDY DURATION: 14 MO), Route [Inhibitor]: ORAL, Species: RAT, Strain/Sex: WISTAR-UNILEVER/MALE, Target Tissue: Type of Lesion: PROSTATE: ADENOCARCINOMA, Dose [Carcinogen]: 30 MG/KG BW ONCE ADMINISTERED TO RATS PRETREATED WITH 50 MG OF CYPROTERONE ACETATE BY GAVAGE FOR 21 CONSECUTIVE DAYS THE, Promoter: TESTOSTERONE, 58-22-0) is listed as 22/34 (65%), 8/40 (20%), 70%, p<0.001; the “tumour outcome (control, treated, inhibition, significance)” value (Carcinogen: N-METHYL-N-NITROSOUREA, 684-93-5, Dose [Inhibitor]: 0, 60 MG/KG OF DIET FOR 147 D (STUDY DURATION: 150 D), Route [Inhibitor]: ORAL, Species: RAT, Strain/Sex: SPRAGUE-DAWLEY/FEMALE, Target Tissue: Type of Lesion: MAMMARY GLAND: ADENOCARCINOMA, Dose [Carcinogen]: 50 MG/KG BW ONCE 3 D BEFORE INITIAL INHIBITOR DOSE, Promoter: NONE USED) is listed as 25/25 (100%), 24/25 (96%), 4%, not significant; the “tumour outcome (control, treated, inhibition, significance)” value (Carcinogen: N-METHYL-N-NITROSOUREA, 684-93-5, Dose [Inhibitor]: 0, 60 MG/KG OF DIET FOR DURATION OF STUDY BEGINNING 1 WK POST CARCINOGEN DOSE (STUDY DURATION: 5 MO), Route [Inhibitor]: ORAL, Species: RAT, Strain/Sex: SPRAGUE-DAWLEY/FEMALE, Target Tissue: Type of Lesion: MAMMARY GLAND: TUMOR, Dose [Carcinogen]: 50 MG/KG BW ONCE, Promoter: NONE USED) is 23/24 (96%), 9/12 (75%), 22%, p=0.1 and 29/30 (97%), 24/30 (80%), 18%, p=0.1; the “tumour outcome (control, treated, inhibition, significance)” value (Carcinogen: N-METHYL-N-NITROSOUREA, 684-93-5, Dose [Inhibitor]: 0, 100 MG/KG OF DIET BEGINNING 1 WK PRIOR TO CARCINOGEN DOSE (STUDY DURATION: 14 MO), Route [Inhibitor]: ORAL, Species: RAT, Strain/Sex: WISTAR-UNILEVER/MALE, Target Tissue: Type of Lesion: PROSTATE: ADENOCARCINOMA, Dose [Carcinogen]: 30 MG/KG BW ONCE ADMINISTERED TO RATS PRETREATED WITH 50 MG OF CYPROTERONE ACETATE BY GAVAGE FOR 21 CONSECUTIVE DAYS THE, Promoter: TESTOSTERONE, 58-22-0) is on record as 22/34 (65%), 7/38 (18%), 72%, p<0.001. The “tumour outcome (control, treated, inhibition, significance)” value by setting is: (Carcinogen: N-METHYL-NITROSOUREA [684-93-5], Dose [Inhibitor]: 60 MG/KG DIET BEGINNING 3 D POST-CARCINOGEN DOSE (STUDY DURATION: 150 D), Route [Inhibitor]: ORAL, Species: RAT, Strain/Sex: SPRAGUE-DAWLEY/FEMALE, Target Tissue: Type of Lesion: MAMMARY GLAND: ADENOCARCINOMA, Dose [Carcinogen]: 50 MG/KG BW ONCE AT 50 D OF AGE) 25/25 (100%); 24/25 (96%), 4%, not significant; (Carcinogen: N-NITROSO-N-METHYLUREA, 684-93-5, Dose [Inhibitor]: 0, 60 MG/KG OF DIET FOR 3 MO BEGINNING 1 WK POST CARCINOGEN DOSE (STUDY DURATION: 100 D), Route [Inhibitor]: ORAL, Species: RAT, Strain/Sex: SPRAGUE-DAWLEY/FEMALE, Target Tissue: Type of Lesion: MAMMARY GLAND: TUMOR, Dose [Carcinogen]: 50 MG/KG BW ONCE, Promoter: NONE USED) 100%, 58%, 42%, p<0.002; (Carcinogen: N-NITROSO-N-METHYLUREA, 684-93-5, Dose [Inhibitor]: 0, 60 MG/KG OF DIET FOR 4.5 MO BEGINNING 1 WK POST CARCINOGEN DOSE (STUDY DURATION: 100 D), Route [Inhibitor]: ORAL, Species: RAT, Strain/Sex: SPRAGUE-DAWLEY/FEMALE, Target Tissue: Type of Lesion: MAMMARY GLAND: TUMOR, Dose [Carcinogen]: 50 MG/KG BW ONCE, Promoter: NONE USED) 96%, 75%, 22%, not significant; (Carcinogen: N-NITROSO-N-METHYLUREA, 684-93-5, Dose [Inhibitor]: 0, 120 MG/KG OF DIET FOR 3 MO BEGINNING 1 WK POST CARCINOGEN DOSE (STUDY DURATION: 100 D), Route [Inhibitor]: ORAL, Species: RAT, Strain/Sex: SPRAGUE-DAWLEY/FEMALE, Target Tissue: Type of Lesion: MAMMARY GLAND: TUMOR, Dose [Carcinogen]: 50 MG/KG BW ONCE, Promoter: NONE USED) 100%, 25%, 75%, p<0.001; (Carcinogen: N-NITROSO-N-METHYLUREA, 684-93-5, Dose [Inhibitor]: 0, 120 MG/KG OF DIET FOR 4.5 MO BEGINNING 1 WK POST CARCINOGEN DOSE (STUDY DURATION: 100 D), Route [Inhibitor]: ORAL, Species: RAT, Strain/Sex: SPRAGUE-DAWLEY/FEMALE, Target Tissue: Type of Lesion: MAMMARY GLAND: TUMOR, Dose [Carcinogen]: 50 MG/KG BW ONCE, Promoter: NONE USED) 96%, 42%, 56%, p<0.001.
`COc1ccc2cc1Oc1ccc(cc1)C[C@H]1c3cc(c(OC)cc3CCN1C)Oc1c(OC)c(OC)cc3c1[C@@H](C2)N(C)CC3`: the “tumour outcome (control, treated, inhibition, significance)” value (Carcinogen: 7,12-DIMETHYLBENZ[A]ANTHRACENE, 57-97-6, Dose [Inhibitor]: 0, 2 UMOL 2/WK 30 MIN PRIOR TO EACH PROMOTER DOSE BEGINNING 1 WK POST CARCINOGEN DOSE (STUDY DURATION: 18 WK), Route [Inhibitor]: DERMAL, Species: MOUSE, Strain/Sex: ICR/FEMALE, Target Tissue: Type of Lesion: SKIN: PAPILLOMA, Dose [Carcinogen]: 50 UG ONCE, Promoter: 12-O-TETRADECANOYLPHORBOL-13-ACETATE, 16561-29-8) was 100%, 27%, 73%, not calculated.
